Measurements reported in patent US10925839B2, “Composition for treating joint disease and kit containing same” (SEIKAGAKU CORPORATION, priority 2017, dated 2021).

Test system: human knee osteoarthritis patients
Assay: Randomized placebo-controlled double-blind trial, WOMAC A (pain) evaluation by VAS
Type: in vivo
Details: 12 weeks after initial administration; for WOMAC-A Change (average change from baseline): MMRM estimate
Method: The effectiveness of the investigational drug (test drug (composition for treating joint disease of invention) or placebo) when administered 3 times at four-week intervals in the knee joint cavities of human knee osteoarthritis patients was investigated by a multi-center collaborative, randomized, placebo-controlled, double-blind, parallel-group comparison trial. The test drug and placebo were as follows:
Test drug: 3 mL of aqueous solution for injection containing 30 mg of test substance (3.6 mg as diclofenac);
The total amount (3 mL) of the test drug or placebo was administered (injected) into the knee joint cavities of the affected knees of the target patients on week 0, week 4 and week 8 for a total of three injections.
Effectiveness was evaluated by the following evaluation methods at the time of the initial administration and at evaluation points 1, 2, 4, 6, 8, 10 and 12 weeks after the initial administration.
Effectiveness was evaluated using the WOMAC® evaluation (The Journal of Rheumatology 1988; 15:12, p. 1833-1840) developed by Dr. Nicholas Bellamy. The WOMAC(r) evaluation has been established as a method for evaluating osteoarthritis (The Journal of Rheumatology 2000; 27:11, p. 2635-2641).
The patient response method used the VAS (Visual Analog Scale). With the VAS, the degree of a patient's own feelings in response to each question is indicated by the patient on a 100 mm line, and the degree is evaluated according to the position on the line. Position is represented as length from the left end of the scale. For example, a patient is asked the same question about pain in evaluations before and after administration, and the patient responds by indicating a position (degree) on the scale. Numerical values for improvement are then obtained based on the difference between the length indicated by the patient before administration (baseline) and the length indicated by the patient during each evaluation after administration.
The improvement effects were quantified based on the difference between the length indicated by the patient before administration (baseline) and the length indicated by the patient at the time of each evaluation after administration. The analysis results for questions about pain (WOMAC® A: evaluates intensity of pain during walking, etc.) are shown in Table 1 below. In the table, the lower the value of the change difference below 0, the greater the improvement effect.

With “Sodium hyaluronate with introduced aminoethanol-diclofenac [Test Drug]” the “WOMAC-A Change difference (test drug group minus placebo group)” value (patients with 25 ≤ BMI and 26 ≤ DP (weeks)) was −13.7, the “WOMAC-A Change (average change from baseline)” value (patients with 25 ≤ BMI and 26 ≤ DP (weeks), VAS 100 mm line) was −30.7 and the “WOMAC-A Change difference (test drug group minus placebo group)” value (patients with 25 ≤ BMI and 26 ≤ DP (weeks), listed as test drug) was “extremely great improvement effect”. For the same substance, the “WOMAC-A Change difference (test drug group minus placebo group)” value (patients with BMI 25≤ kg/m^2) was −13.4, the “WOMAC-A Change (average change from baseline)” value (patients with BMI 25≤ kg/m^2, VAS 100 mm line) was −32.6 and the “WOMAC-A Change difference (test drug group minus placebo group)” value (patients with BMI <25 and/or DP <26 weeks) was −3.2. For the same substance, the “WOMAC-A Change (average change from baseline)” value (patients with BMI <25 and/or DP <26 weeks, VAS 100 mm line) was −27.2, the “WOMAC-A Change difference (test drug group minus placebo group)” value (patients with BMI <25 kg/m^2) was −2.1 and the “WOMAC-A Change (average change from baseline)” value (patients with BMI <25 kg/m^2, VAS 100 mm line) was −25.2. For the same substance, the “WOMAC-A Change (average change from baseline)” value (whole group, 30 mg test substance intra-articular at weeks 0, 4, 8, VAS 100 mm line) was −28.7 and the “WOMAC-A Change difference (test drug group minus placebo group)” value (whole group, VAS 100 mm line) was −7.0.
